Data published in PubChem BioAssay AID330 (DTP/NCI, 2004).
Values joined by “and” are separate entries in the source; they are usually repeats but may differ in a detail not shown here. Equal values may be shown once. Toxic doses and inconclusive results are not listed.

Test system: P388 leukemia ip, CD2F1 mice, survival T/C
Experiment: NCI In Vivo Anticancer Drug Screen. Data for tumor model P388 Leukemia (intraperitoneal) in CD2F1 (CDF1) mice
Conditions: endpoint: median survival time, higher = longer survival
Method in brief: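 Mice carrying the transplanted tumor received test compound or vehicle. Survival was recorded in each group, and the value is the treated-group measurement divided by that of the vehicle-treated control group.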

[1] = dose: 50.0 mg/kg/injection, schedule: Q01DX009 (ip), vehicle: saline with Tween-80
[2] = dose: 100.0 mg/kg/injection, schedule: Q01DX009 (ip), vehicle: saline with Tween-80
[3] = dose: 200.0 mg/kg/injection, schedule: Q01DX009 (ip), vehicle: saline with Tween-80
[4] = dose: 50.0 mg/kg/injection, schedule: Q01DX005 (ip), vehicle: Klucel (hydroxypropylcellulose) (HPC)
[5] = dose: 100.0 mg/kg/injection, schedule: Q01DX005 (ip), vehicle: Klucel (hydroxypropylcellulose) (HPC)
[6] = dose: 200.0 mg/kg/injection, schedule: Q01DX005 (ip), vehicle: Klucel (hydroxypropylcellulose) (HPC)
[7] = dose: 50.0 mg/kg/injection, schedule: Q01DX005 (ip), vehicle: saline with Tween-80
[8] = dose: 50.0 mg/kg/injection, schedule: Q01DX009 (ip), vehicle: Klucel (hydroxypropylcellulose) (HPC)
[9] = dose: 100.0 mg/kg/injection, schedule: Q01DX009 (ip), vehicle: Klucel (hydroxypropylcellulose) (HPC)
[10] = dose: 100.0 mg/kg/injection, schedule: Q04DX003 (ip), vehicle: saline with Tween-80
[11] = dose: 200.0 mg/kg/injection, schedule: Q04DX003 (ip), vehicle: saline with Tween-80
[12] = dose: 400.0 mg/kg/injection, schedule: Q04DX003 (ip), vehicle: saline with Tween-80

With `C=C1CC/C=C(\C)C(=O)C(O)C2C1CC2(C)C` (stereo not drawn) the T/C (dose: 0.37 mg/kg/injection, schedule: Q01DX009 (ip), vehicle: saline + alcohol) was 104 % of control, the T/C (dose: 0.75 mg/kg/injection, schedule: Q01DX009 (ip), vehicle: saline + alcohol) was 104 % of control and the T/C (dose: 1.5 mg/kg/injection, schedule: Q01DX009 (ip), vehicle: saline + alcohol) was 106 % of control. The T/C (dose: 3.0 mg/kg/injection, schedule: Q01DX009 (ip), vehicle: saline + alcohol) was 105 % of control and the T/C (dose: 6.0 mg/kg/injection, schedule: Q01DX009 (ip), vehicle: saline + alcohol) was 88 % of control.

For `COC(=O)/C=C1\C=CC=CN1C`, the T/C [1] was 105 % of control, the T/C [2] was 106 % of control and the T/C [3] was 106 % of control.

In the case of `O=S(=O)(CCl)OCCCCOS(=O)(=O)CCl`, the T/C (dose: 25.0 mg/kg/injection, schedule: Q04DX003 (ip), vehicle: saline sonified) is reported as 109 % of control, the T/C (dose: 50.0 mg/kg/injection, schedule: Q04DX003 (ip), vehicle: saline sonified) is reported as 104 % of control and the T/C (dose: 66.0 mg/kg/injection, schedule: Q01DX009 (ip), vehicle: saline) is reported as 120 % of control. The T/C (dose: 100.0 mg/kg/injection, schedule: Q04DX003 (ip), vehicle: saline sonified) was 118 % of control and the T/C (dose: 150.0 mg/kg/injection, schedule: Q01DX009 (ip), vehicle: saline) was 150 % of control.

In the case of `N#CC(Br)CNC(=O)Oc1ccccc1` (stereo not drawn), the T/C [4] is reported as 104 % of control, the T/C [5] is reported as 106 % of control and the T/C [6] is reported as 105 % of control.

`COC(=O)[C@@]12OC[C@]34C([C@@H](O)C1O)[C@@]1(C)CC(=O)C(O)=C(C)C1C[C@H]3OC(=O)[C@H](OC(=O)c1ccc(Cl)cc1)[C@H]42` (stereo partly drawn) was tested, and the T/C (dose: 0.25 mg/kg/injection, schedule: Q01DX005 (ip), vehicle: DMSO) was 112 % of control, the T/C (dose: 0.5 mg/kg/injection, schedule: Q01DX005 (ip), vehicle: DMSO) was 116 % of control and the T/C (dose: 1.0 mg/kg/injection, schedule: Q01DX005 (ip), vehicle: DMSO) was 113 % of control and 115 % of control. For the same compound, the T/C (dose: 2.0 mg/kg/injection, schedule: Q01DX005 (ip), vehicle: DMSO) was 109 % of control and 118 % of control, the T/C (dose: 4.0 mg/kg/injection, schedule: Q01DX005 (ip), vehicle: DMSO) was 109 % of control and the T/C (dose: 8.0 mg/kg/injection, schedule: Q01DX005 (ip), vehicle: DMSO) was 110 % of control and 115 % of control. For the same compound, the T/C (dose: 16.0 mg/kg/injection, schedule: Q01DX005 (ip), vehicle: DMSO) was 112 % of control.

In the case of `Cc1ccc(S(=O)(=O)OCCOCCOCCOCCOCCOCCOCCOCCOCCOCCOCCOCCOCCOCCOS(=O)(=O)c2ccc(C)cc2)cc1`, the T/C (dose: 37.5 mg/kg/injection, schedule: Q01DX001 (ip), vehicle: saline with Tween-80) is reported as 101 % of control, the T/C (dose: 75.0 mg/kg/injection, schedule: Q01DX001 (ip), vehicle: saline with Tween-80) is reported as 104 % of control and the T/C (dose: 150.0 mg/kg/injection, schedule: Q01DX001 (ip), vehicle: saline with Tween-80) is reported as 102 % of control.

In the case of `COc1ccc(-c2coc3c4c(c(CC=C(C)C)c(OC)c3c2=O)OC(C)(C)C=C4)cc1OC`, the T/C (dose: 12.5 mg/kg/injection, schedule: Q01DX005 (ip), vehicle: saline with Tween-80) is reported as 102 % of control, the T/C (dose: 25.0 mg/kg/injection, schedule: Q01DX005 (ip), vehicle: saline with Tween-80) is reported as 100 % of control and the T/C [7] is reported as 98 % of control and 91 % of control.

`CC(C)CCCC(C)C1CCC2C3CC=C4CC(O)CCC4(C)C3CCC12C` (stereo not drawn) (tested in a mixture with another compound) was tested, and the T/C (dose: 3.12 mg/kg/injection, schedule: Q01DX009 (ip), vehicle: saline) was 87 % of control, the T/C (dose: 6.25 mg/kg/injection, schedule: Q01DX009 (ip), vehicle: saline) was 92 % of control and the T/C (dose: 12.5 mg/kg/injection, schedule: Q01DX009 (ip), vehicle: saline) was 94 % of control. The T/C (dose: 25.0 mg/kg/injection, schedule: Q01DX009 (ip), vehicle: saline) was 94 % of control.

With `CCC1=CCCN(Cc2ccccc2)C1C#N` (stereo not drawn) the T/C (dose: 7.5 mg/kg/injection, schedule: Q01DX005 (ip), vehicle: Klucel (hydroxypropylcellulose) (HPC)) was 106 % of control, the T/C (dose: 15.0 mg/kg/injection, schedule: Q01DX005 (ip), vehicle: Klucel (hydroxypropylcellulose) (HPC)) was 111 % of control and the T/C (dose: 30.0 mg/kg/injection, schedule: Q01DX005 (ip), vehicle: Klucel (hydroxypropylcellulose) (HPC)) was 118 % of control.

In the case of `Cc1c(Cc2c(C)n(C)n(-c3ccccc3)c2=O)c(=O)n(-c2ccccc2)n1C`, the T/C (dose: 25.0 mg/kg/injection, schedule: Q01DX009 (ip), vehicle: Klucel (hydroxypropylcellulose) (HPC)) is reported as 100 % of control and 103 % of control, the T/C [8] is reported as 106 % of control and 89 % of control and the T/C [9] is reported as 99 % of control and 88 % of control.

For `COc1ccc(Cc2nc(C)cc3cc(OC)c(OC)cc23)cc1OC`, the T/C (dose: 50.0 mg/kg/injection, schedule: Q01DX009 (ip), vehicle: water) was 111 % of control, the T/C (dose: 100.0 mg/kg/injection, schedule: Q01DX009 (ip), vehicle: water) was 102 % of control and the T/C (dose: 200.0 mg/kg/injection, schedule: Q01DX009 (ip), vehicle: water) was 89 % of control.

`CC1(C)CC(=O)C=C(OCCc2ccccc2)C1` was tested, and the T/C [10] was 100 % of control, the T/C [11] was 100 % of control and the T/C [12] was 95 % of control.

`Cc1ccc2nc3[nH]c(=O)[nH]c(=O)c3c(N)c2c1` was tested, and the T/C [4] was 101 % of control, the T/C [5] was 104 % of control and the T/C [6] was 102 % of control.

With `C=C1C(=O)OC2CC3(C)C(CCC(C)=O)C3CC12` (stereo not drawn) the T/C (dose: 50.0 mg/kg/injection, schedule: Q01DX009 (ip), vehicle: saline) was 96 % of control, the T/C (dose: 100.0 mg/kg/injection, schedule: Q01DX009 (ip), vehicle: saline) was 94 % of control and the T/C (dose: 200.0 mg/kg/injection, schedule: Q01DX009 (ip), vehicle: saline) was 98 % of control.

For `O=C1/C(=C/c2ccc(O)cc2)Oc2cc(O)ccc21`, the T/C (dose: 100.0 mg/kg/injection, schedule: Q01DX001 (ip), vehicle: saline with Tween-80) was 97 % of control, the T/C (dose: 200.0 mg/kg/injection, schedule: Q01DX001 (ip), vehicle: saline with Tween-80) was 91 % of control and the T/C (dose: 400.0 mg/kg/injection, schedule: Q01DX001 (ip), vehicle: saline with Tween-80) was 92 % of control.

`CCCOC(=O)CP(=O)(O)O` was tested, and the T/C [1] was 101 % of control, the T/C [2] was 95 % of control and the T/C [3] was 87 % of control.

`CN=NNCc1ccccc1` was tested, and the T/C (dose: 1.56 mg/kg/injection, schedule: Q01DX005 (ip), vehicle: saline) was 100 % of control and 102 % of control, the T/C (dose: 3.12 mg/kg/injection, schedule: Q01DX005 (ip), vehicle: saline) was 98 % of control and 103 % of control and the T/C (dose: 6.25 mg/kg/injection, schedule: Q01DX005 (ip), vehicle: saline) was 102 % of control and 105 % of control. For the same compound, the T/C (dose: 12.5 mg/kg/injection, schedule: Q01DX005 (ip), vehicle: saline) was 93 % of control.

In the case of `c1ccc(C23CC2COP3(c2ccccc2)(c2ccccc2)c2ccccc2)cc1` (stereo not drawn), the T/C (dose: 6.25 mg/kg/injection, schedule: Q01DX009 (ip), vehicle: suspension in saline) is reported as 90 % of control, the T/C (dose: 12.5 mg/kg/injection, schedule: Q01DX009 (ip), vehicle: suspension in saline) is reported as 98 % of control and the T/C (dose: 25.0 mg/kg/injection, schedule: Q01DX009 (ip), vehicle: suspension in saline) is reported as 93 % of control.

For `NC(=S)N/N=C/c1cc(Br)ccc1O`, the T/C [10] was 86 % of control, the T/C [11] was 94 % of control and the T/C [12] was 112 % of control.

With `CCCCCCC1=NC(C)(C)CO1` the T/C [1] was 100 % of control, the T/C (dose: 50.0 mg/kg/injection, schedule: Q04DX003 (ip), vehicle: saline with Tween-80) was 100 % of control and the T/C [2] was 104 % of control. For the same compound, the T/C [10] was 100 % of control, the T/C [3] was 100 % of control and the T/C [11] was 109 % of control.

In the case of `O=C(C[n+]1ccsc1Br)c1ccccc1`, the T/C [7] is reported as 102 % of control and the T/C (dose: 100.0 mg/kg/injection, schedule: Q01DX005 (ip), vehicle: saline with Tween-80) is reported as 119 % of control.

For `Cc1nc(-c2ccccc2)c2c(C)[nH]c(-c3ccccc3)c2n1`, the T/C [8] was 110 % of control, the T/C [9] was 112 % of control and the T/C (dose: 200.0 mg/kg/injection, schedule: Q01DX009 (ip), vehicle: Klucel (hydroxypropylcellulose) (HPC)) was 104 % of control.

With `C=CC(OC(C)=O)OC(C)=O` the T/C (dose: 8.0 mg/kg/injection, schedule: Q01DX009 (ip), vehicle: saline) was 109 % of control, the T/C (dose: 12.0 mg/kg/injection, schedule: Q01DX009 (ip), vehicle: saline) was 118 % of control and the T/C (dose: 18.0 mg/kg/injection, schedule: Q01DX009 (ip), vehicle: saline) was 109 % of control.

With `CC(C)Cc1c(O)c(N=Nc2ccc(C(=O)O)c(O)c2)c2ccccc2c1O` the T/C (dose: 100.0 mg/kg/injection, schedule: Q04DX002 (ip), vehicle: distilled water + alcohol) was 99 % of control and the T/C (dose: 200.0 mg/kg/injection, schedule: Q04DX002 (ip), vehicle: distilled water + alcohol) was 97 % of control.
